Experimental data published in patent US4530923A, “N-acetamilide, N-(phenoxy-2-propanol)- and N-(phenylamino-2-propanol)-cyclicamines” (Egyt Gyogyszervegyeszeti Gyar, priority 1981, dated 1985).
Read-outs that look alike come from different tables or passages of the source.

How the values were obtained:
[1] = tested on: Auricle; test: antiarrhythmic activity, electrical fibrillation threshold of auricle, anaesthetized cats; assay type: in vivo; conditions: relative to quinidine = 1.00, from ED50 mg/kg, i.v., fibrillation threshold method
Method: (§1) The animals were anaesthetized with chloralose-urethane [50/30 mg/kg, i.v.]. The minimal strength of the current necessary to evoke the ventricular and auricular fibrillo-flutter, respectively, was followed by the method of Szekeres and al. [Szekeres, Mehes and Papp: Brit. J. Pharmacol. 17, 167 (1961); Szekeres and Papp: Experimental Cardiac Arrhythmias and Antiarrhythmic Drugs, Akademiai Kiado, Budapest, 1971; Szekeres and Papp: Experimental Cardiac Arrhythmias, Hdb. Exp. Pharmacol. XVI/3, 131, (1975).
(§2) The therapeutic indices related to the antiarrhythmic activity were calculated on the basis of the LD50 /ED50 ratio, where LD50 is the doses resulting in the death of the 50% of the animals (rats), and ED50 is the dosis provoking a 50% rise in the electrical threshold for fibrillation on rats. The LD50 values were determined on male Wistar rats weighing 180 to 220 g by the method of Litchfield and Wilcoxon [J. Pharmacol. Exp. Ther. 95, 49 (1949)].
(§3) ^+ Relative activity calculated from the antiarrhythmic activity
(§4) [ED50 mg/kg, i.v.] determined on cats by the fibrillation threshold

[2] = tested on: Ventricle; test: antiarrhythmic activity, electrical fibrillation threshold of ventricle, anaesthetized cats; assay type: in vivo; conditions: relative to quinidine = 1.00, from ED50 mg/kg, i.v., fibrillation threshold method
Method: as §1, §2, §3, §4

[3] = therapeutic index LD50:ED50 related to antiarrhythmic activity on auricle; assay type: in vivo, LD50: male Wistar rats; ED50: cats (b90) / rats (b59); conditions: rat, in vivo, iv, ED50 i.v.
Method: as §1, §2
(§5) The i.v. and p.os LD50 values were determined on rats.

[4] = therapeutic index LD50:ED50 related to antiarrhythmic activity on ventricle; assay type: in vivo, LD50: male Wistar rats; ED50: cats (b90) / rats (b59); conditions: rat, in vivo, iv; LD50 p.os rats; ED50 i.v.
Method: as §1, §2, §5

[5] = tested on: Ventricle; test: as above; assay type: in vivo, LD50: male Wistar rats; ED50: cats (b90) / rats (b59); conditions: for Ventricle: Therapeutic index LD50:ED50 /i.v.//i.v./: LD50 i.v. rats
Method: as §1, §2, §5

[6] = tested on: right auricle; test: heartelectrophysiological test on isolated rabbit heart preparation, right auricle; conditions: Oryctolagus cuniculus, percentage of the original values, read-out: Spontaneous frequency /right auricle/; for inhibition at 0.2 µg/mL: 0.2 mg/l
[7] = tested on: left auricle; test: heartelectrophysiological test on isolated rabbit heart preparation, left auricle; conditions: Oryctolagus cuniculus, percentage of the original values; for activation at 5 µg/mL: 5 mg/l; for activation at 0.2 µg/mL: 0.2 mg/l; for activation at 0.5 µg/mL: 0.5 mg/l
[8] = tested on: papillary muscle; test: heartelectrophysiological test on isolated rabbit heart preparation, papillary muscle; conditions: Oryctolagus cuniculus, percentage of the original values; for activation at 5 µg/mL: 5 mg/l; for activation at 0.2 µg/mL: 0.2 mg/l; for activation at 0.5 µg/mL: 0.5 mg/l
[9] = tested on: cardiac rhythm disturbances; conditions: cited from earlier work
[10] = tested on: Auricle; test: therapeutic index LD50:ED50 related to antiarrhythmic activity on auricle; assay type: in vivo, LD50: male Wistar rats; ED50: cats (b90) / rats (b59)
Method: as §1, §2, §5

[11] = tested on: isolated rabbit heart preparation; test: heartelectrophysiological methods on an isolated rabbit heart preparation (summary)
Description: The compounds of Examples 5, 6 and 7, tested by heartelectrophysiological methods on an isolated rabbit heart preparation decrease the spontaneous frequency of right ventricle, increase the electric stimulus threshold, prolong the effective refractory period and also the time of stimulus conduction. The data referring hereto are given in Table II, in the percentage of the original values.

[12] = tested on: dogs; test: haemodynamics in dogs anaesthetized with nembutal; assay type: in vivo; conditions: nembutal anaesthesia, 0.5 to 2 mg/kg i.v.
Method: On dogs anaesthetized with nembutal (35 mg/kg, i.v.) in an i.v. dosis of 0.5 to 2 mg/kg the compounds slightly decrease the arterial blood pressure. The compounds of Examples 5 and 6 decrease the coronary resistance, improve the oxygenization of the heart muscle, increase the blood flow of the artery femoralis, and the compound of Example 5 increases also the blood flow of arteria carotis.

[13] = tested on: nervus ischiadicus of frog; test: local anaesthetic effect on action potential of nervus ischiadicus of frog
[14] = LD50 i.v. rats, read-out: Auricle: Therapeutic index LD50:ED50 /i.v.//i.v./
[15] = LD50 p.os rats, read-out: Auricle: Therapeutic index LD50:ED50 /p.os//i.v./
[16] = read-out: Effective refractory period /left auricle/
[17] = read-out: Electrical threshold /left auricle/
[18] = read-out: Time of the stimulus-conduction /left auricle/
[19] = read-out: Effective refractory period /papillary muscle/
[20] = read-out: Electrical threshold /papillary muscle/
[21] = ventricle (from Table I), versus quinidine

With `C=C[C@H]1C[N@@]2CC[C@H]1C[C@@H]2[C@@H](O)c1ccnc2ccc(OC)cc12` [Quinidine, reference compound] the “Auricle: Relative activity” value [1] was 1.00, the “Ventricle: Relative activity” value [2] was 1.00 and the selectivity ratio [3, 14] was 13.4. The selectivity ratio [3, 15] was 280, the selectivity ratio [4] was 145 and the “Ventricle: Therapeutic index LD50:ED50 /i.v.//i.v./” value [5] was 6.9. For the same molecule, the inhibition at 5 µg/mL ([6]; 5 mg/l) was 12 ± 1%, the activation at 5 µg/mL [7, 16] was 32% and the activation at 5 µg/mL [7, 17] was 120%. It also gave an activation at 5 µg/mL [7, 18] of 90%, an activation at 5 µg/mL [8, 19] of 55% and an activation at 5 µg/mL [8, 20] of 56%. The “effectiveness in cardiac rhythm disturbances” value ([9]; Br. Heart J. 38, 381 (1976)) was “effective primarily in the treatment of arrhythmia, auricular flutter, fibrillation and paroxysmal tachycardia” and the toxic side-effects ([9]; background literature) was “induce subjective hyperaesthesia, create vision problems, headache and nausea, and give rise to grave asthmatic symptoms”.
With `Cc1cccc(C)c1OCC(O)CN1CCCCCCC1` (stereo not shown) [Example 6, 1-(2,6-dimethylphenoxy)-3-heptamethyleneimino-propanol-2] the “Auricle: Relative activity” value [1] was 12.50, the “Ventricle: Relative activity” value [2] was 2.80 and the selectivity ratio [3, 14] was 23.9. For the same molecule, the selectivity ratio [3, 15] was 1960, the “therapeutic index related to the supraventricular activity (in words)” value ([10]; among the tested compounds) was “most preferable therapeutic index” and the “therapeutic index related to supraventricular activity (i.v. toxicity), times higher than that of quinidine” value ([10]; i.v. LD50 / i.v. ED50, versus quinidine) was “about 1.8 times”. The “therapeutic index related to supraventricular activity (per os toxicity), times higher than that of quinidine” value ([10]; per os LD50 / i.v. ED50, versus quinidine) was ~7 times, the selectivity ratio [4] was 229 and the “Ventricle: Therapeutic index LD50:ED50 /i.v.//i.v./” value [5] was 2.8. For the same molecule, the “quotient per os LD50 / i.v. ED50, times higher than that of quinidine” value [5, 21] was “about 1.6 times”, the inhibition at 0.2 µg/mL [6] was 7 ± 1% and the activation at 0.2 µg/mL [7, 16] was 3%. For the same molecule, the activation at 0.2 µg/mL [7, 17] was 19%, the activation at 0.2 µg/mL [7, 18] was 15% and the activation at 0.2 µg/mL [8, 19] was 4%. For the same molecule, the activation at 0.2 µg/mL [8, 20] was 9%, the “effective refractory period (in words)” value [11] was “prolong” and the “electric stimulus threshold (in words)” value [11] was “increase”. The “spontaneous frequency of right ventricle (in words)” value (“spontaneous frequency” for short) [11] was “decrease”, the “time of stimulus conduction (in words)” value [11] was “prolong” and the “blood flow of the artery femoralis” value [12] was “increase”. The coronary resistance [12] was “decrease”, the “oxygenization of the heart muscle” value [12] was “improve” and the “local anaesthetic effect (in words)” value [13] was “strong local anaesthetic effect”. For the same molecule, the “local anaesthetic effect, times stronger than that of lidocaine” value ([13]; versus lidocaine) was 2.7 times.
For `Cc1cccc(C)c1OCC(O)CN1CCCCCC1` (stereo not shown) [Example 5, 1-(2,6-dimethylphenoxy)-3-hexamethyleneimino-propanol-2], the “Auricle: Relative activity” value [1] was 7.14, the “Ventricle: Relative activity” value [2] was 8.04 and the selectivity ratio [3, 14] was 13.3. The selectivity ratio [3, 15] was 189, the selectivity ratio [4] was 110 and the “Ventricle: Therapeutic index LD50:ED50 /i.v.//i.v./” value [5] was 7.7. The inhibition at 0.2 µg/mL [6] was 4 ± 2%, the activation at 0.2 µg/mL [7, 16] was 10% and the activation at 0.2 µg/mL [7, 17] was 24%. For the same molecule, the activation at 0.2 µg/mL [7, 18] was 38%, the activation at 0.2 µg/mL [8, 19] was 9% and the activation at 0.2 µg/mL [8, 20] was 46%. The “effective refractory period (in words)” value [11] was “prolong”, the “electric stimulus threshold (in words)” value [11] was “increase” and the “spontaneous frequency” value [11] was “decrease”. For the same molecule, the “time of stimulus conduction (in words)” value [11] was “prolong”, the “blood flow of arteria carotis” value [12] was “increases” and the “blood flow of the artery femoralis” value [12] was “increase”. For the same molecule, the coronary resistance [12] was “decrease” and the “oxygenization of the heart muscle” value [12] was “improve”.
With `Cc1cccc(C)c1NCC(O)CN1CCCCCC1` (stereo not shown) [Example 7, 1-hexamethyleneimino-3-(2,6-dimethylanilino)propanol-2] the “Auricle: Relative activity” value [1] was 8.54, the “Ventricle: Relative activity” value [2] was 7.85 and the selectivity ratio [3, 14] was 20.7. For the same molecule, the selectivity ratio [3, 15] was 439, the selectivity ratio [4] was 209 and the “Ventricle: Therapeutic index LD50:ED50 /i.v.//i.v./” value [5] was 9.9. For the same molecule, the “quotient i.v. LD50 / i.v. ED50, times higher than that of quinidine” value [5, 21] was “about 1.4 times”, the inhibition at 0.5 µg/mL ([6]; 0.5 mg/l) was 9 ± 1% and the activation at 0.5 µg/mL [7, 16] was 11%. The activation at 0.5 µg/mL [7, 17] was 25%, the activation at 0.5 µg/mL [7, 18] was 28% and the activation at 0.5 µg/mL [8, 19] was 10%. The activation at 0.5 µg/mL [8, 20] was 29%, the “effective refractory period (in words)” value [11] was “prolong” and the “electric stimulus threshold (in words)” value [11] was “increase”. For the same molecule, the “spontaneous frequency” value [11] was “decrease” and the “time of stimulus conduction (in words)” value [11] was “prolong”.
